Laboratory results as given in patent US7026342B2, “Method for treating fibrotic diseases or other indications utilizing thiazole, oxazole and imidazole compounds” (Alteon, Inc., priority 2000, dated 2006).
Counter-ions that a name gives are not always drawn.

How the values were obtained:
cardiovascular tissues = assay: In vivo studies of vascular stiffening and cardiovascular collagen; design: species or system rodents, canines and primates
Source text: (§1) Cardiovascular risk correlates more closely with the systolic and the pulse pressure than with the diastolic pressure. In diabetic patients, the cardiovascular risk profile of diabetic patients is strongly correlated to duration of diabetes, glycemic control and blood pressure. Structural matrix proteins contribute to the function of vessels and the heart, and changes in the physical behavior of cardiovascular walls are believed to be important determinants of circulatory function. In elderly individuals, the loss of compliance in the aorta leads to isolated systolic hypertension, which in turn expands the arterial wall and thereby diminishes the dynamic range of elasticity.

Type IV collagen = assay: In situ hybridization studies, Type IV collagen expression
Source text: as §1

[1] = test system: Rats with left anterior descending coronary artery ligated; assay: Rat myocardial infarct model, left anterior descending coronary artery ligated; format: in vivo; settings: 10 mg/kg intraperitoneal daily for 30 days before ligation and 14 days after
Procedure: Rats received a daily intraperitoneal dose of 10 mg/kg 3-[2-phenyl-2-oxoethyl]-4,5-dimethyl-thiazolium salt (compound A) (n=14) or placebo (n=15) for 30 days. The animals then underwent a thoracotomy and the left anterior descending coronary artery ligated. The chest was then closed and the animals allowed to recover for 14 days while continuing to be treated with compound A or placebo. The animals were then sacrificed and the hearts removed for histological examination. The weight of the infarcted tissue was 0.16±0.04 g for the placebo treated animals compared to 0.11±0.05 g for the compound A treated animals (p=0.04).

TGFbeta = assay: In situ hybridization studies, TGFbeta expression
Source text: as §1

[2] = test system: elderly patients with pulse pressures greater than 60 mm Hg; assay: Phase IIa clinical trial; format: in vivo, human
Source text: When the heart pumps blood into the vascular system, the ability of the arteries to expand helps to push blood through the body. When arteries become stiff, as they do in the natural process of aging, the ability of the arteries to expand is diminished and also has consequences for the heart. The heart has to work harder to pump the blood into the stiff arteries, and eventually hypertrophies (enlarges in size) to accomplish this. A hypertrophied heart is an inefficient pump, and is one of the disorders that leads to congestive heart failure. […] The potential clinical benefit of this is to lessen the effort that the heart must expend to push blood throughout the body. The effect is also believed to contribute to preventing hypertrophy and subsequent inefficiency of the heart, which inefficiency would contribute to congestive heart failure.
Atherosclerosis is a disease that involves deposition of blood lipids in plaque in the arteries throughout the body. In coronary arteries, accumulation of plaque progressively leads to reduced coronary flow, with occlusion of the arteries causing focal death of cardiac tissue (myocardial infarction, heart attack). If the amount of tissue that dies is large enough, death ensures. […] Reducing local deposits of plaque should eventually lessen the risk of myocardial infarction and death due to heart attacks.
Pulse pressure is the difference between systolic and diastolic blood pressure. In a young human, systolic pressure is typically 120 mm Hg and diastolic pressure is 80 mm Hg, resulting in a pulse pressure of 40 mm Hg. With age, in many individuals pulse pressure increases, largely due to the increase in systolic pressure that results from stiff vessel disease. In individuals with pulse pressure greater than 60 mm Hg there is an increased risk of death from cardiovascular morbidities. […] This decrease in pulse pressure was believed to be due primarily to the effect of the agent on lowering the systolic blood pressure.

dog model for diabetes = assay: Dog model for diabetes, ventricular elasticity; format: in vivo
Source text: as §1

Cc1sc[n+](CC(=O)c2ccccc2)c1C [compound A, 3-[2-phenyl-2-oxoethyl]-4,5-dimethyl-thiazolium salt]
mass of collagen in cardiovascular tissues (cardiovascular tissues; in vivo): reduction in the mass of collagen in cardiovascular tissues | vascular stiffening (cardiovascular tissues; in vivo studies in rodents, canines and primates): substantially ameliorating vascular stiffening | expression of Type IV collagen (Type IV collagen): reduces the expression of both Type IV collagen and TGFbeta | weight of the infarcted tissue ([1]; n=14, p=0.04 vs placebo): 0.11 ± 0.05 g | thickness of the ventricular wall in the infarcted zone ([1]; n=14, p=0.09 vs placebo): 2.56±0.22 mm | expression of TGFbeta (TGFbeta): reduces the expression of both Type IV collagen and TGFbeta | stiffness of arteries, measured by the ratio of stroke volume (ml) to pulse pressure (mm Hg) ([2]; Phase IIa clinical trial): showed an ability to reverse the stiffness of arteries | amount of circulating triglycerides (lipids) ([2]; Phase IIa trial): increased the amount of circulating triglycerides | pulse pressure ([2]; Phase IIa trial, elderly patients with pulse pressures greater than 60 mm Hg, statistically significant): reduced pulse pressure | end diastolic pressure and end diastolic volume, indicators of ventricular elasticity (dog model for diabetes): returned to a value at about the mid-point between the disease impaired value and the value for control dogs
